Here are results for 1 molecule from patent US6726928B2, “Process for preparing solid dosage forms for unpalatable pharmaceuticals” (R.P. Scherer Technologies, Inc., priority 1994, dated 2004).

Structures are written as SMILES.

The data set can be described thus: pH dependence of Piroxicam solubility. The class given is physicochemical. The text has this:
The solubility of weak acids and weak bases may be adjusted by pH control. Increasing the pH of a solution can decrease solubility of a weak base, whereas the solubility of a weak acid can be […] by a pH decrease. The relative levels of weak acid or weak base added to the drug can be calculated with the knowledge of the Henderson-Hasselbalch equation, and by calculation of the pKa of the drug concerned in the solvent in question. […] Piroxicam ([…]) has a “U”-shaped pH solubility curve with a minimum around pH 3.5. […] A further advantage arising out of the reduced solubility of Piroxicam is reduced formation of the hydrate which has a bright yellow color.

With `CN1C(C(=O)Nc2ccccn2)=C(O)c2ccccc2S1(=O)=O` [Piroxicam], the “pH of minimum of the U-shaped pH solubility curve” value is on record as about 3.5. The “change in solubility on pH adjustment” value (pH adjusted from about 6.5 to approximately 4.0 by addition of an acid such as citric acid) was “approximately tenfold decrease in solubility”.
